Four molecules from ChEMBL document CHEMBL1201862, “PubChem BioAssay data set” (2004) can be followed below.

Calls of active or inactive are those of the source. For most assays here, no stated cut-off is given here; in the data, actives have a measured EC50 and inactives only a lower limit. Where only a bound is given, the exact number is not on record here.

One assay deals with Beta-galactosidase (Escherichia coli, UniProt Q8VNN2). Briefly: PubChem AID 485352. The assay is classed as functional.
The target of assay [1] is T1, Type-1 angiotensin II receptor (Homo sapiens, UniProt P30556).
T1 sequence (P30556 whole entry): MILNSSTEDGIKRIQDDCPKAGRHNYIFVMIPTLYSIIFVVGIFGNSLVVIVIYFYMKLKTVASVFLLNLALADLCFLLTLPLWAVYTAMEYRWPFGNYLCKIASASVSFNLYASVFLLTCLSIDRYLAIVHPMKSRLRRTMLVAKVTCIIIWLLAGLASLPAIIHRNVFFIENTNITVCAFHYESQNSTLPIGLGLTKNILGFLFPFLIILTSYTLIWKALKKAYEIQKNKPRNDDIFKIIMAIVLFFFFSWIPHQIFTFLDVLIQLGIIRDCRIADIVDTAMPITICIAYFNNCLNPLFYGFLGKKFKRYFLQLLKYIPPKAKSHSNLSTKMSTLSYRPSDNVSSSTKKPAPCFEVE
Briefly: AT1 receptor antagonists, dose response, selectivity assay for APJ receptor antagonist project, cell-based, uHTS hits (AID 463214).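 Further: antagonist potency against angiotensin II stimulated AT1 response.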 The assay is classed as functional.

In the next assay the target is Cytochrome P450 3A4 (Homo sapiens, UniProt P08684).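 Further: CYP3A4 tested as one member of a cytochrome P450 panel screen.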
Assay [2] is described as follows: inhibitors of firefly luciferase expression or activity, dose response, H4 neuroglioma cells, luminescence (AID 1990). The assay is classed as functional, cell-based.
Assay [3] relates to Streptococcus sp. 'group A'. Briefly: growth inhibition of control SK(-) GAS strain, dose response, counter-screen for streptokinase expression inhibitor project, luminescence, kanamycin, BacTiterGlo, confirmation (AID 1900). The assay is classed as functional, organism-based. (In general: The purpose of a counterscreen is to sort out artefacts and off-target activity.)
Assay [4] in a line: Luminescence Cell-Based Dose Response HTS to Identify Inhibitors of 5'UTR Stem-Loop Driven Prion Protein mRNA Translation in H4 Neuroglioblastoma Cells. [Related pubchem assays: 1827 (Project Summary), 1813 (Primary HTS)]. The assay is classed as functional.
Assay [5] in a line: inhibitors of SNCA 5'UTR-driven reporter translation, confirmation, H4 neuroglioma cells, luminescence (AID 1988). The assay is classed as functional, cell-based.
The test system of the next assay is Streptococcus. Briefly: Group A Streptococcus viability loss, dose response, counter-screen for streptokinase expression inhibitor project, luminescence, BacTiterGlo (AID 1915).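 Further: potency for reduction of bacterial viability or growth.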 The assay is classed as functional, organism-based.
The next assay has as its system HEK293. The assay can be described thus: inhibitors of LMP1-driven NF-kB reporter, dose response, cell-based, HEK293, luciferase, cherry-pick (AID 588343). The assay is classed as functional. The note with it: Homo sapiens.
For another assay, the system named is INS1. The assay can be described thus: beta cell apoptosis inhibitors, cytokine rescue, dose response, luminescence, retest (AID 449756).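 Further: cell death triggered by IL-1 beta plus TNF-alpha plus IFN-gamma mixture; protective hits raise ATP signal compared with cytokine alone wells.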 The settings on record: Rattus norvegicus. The assay is classed as functional, cell-based.

Sequence of Beta-galactosidase (Q8VNN2 whole entry): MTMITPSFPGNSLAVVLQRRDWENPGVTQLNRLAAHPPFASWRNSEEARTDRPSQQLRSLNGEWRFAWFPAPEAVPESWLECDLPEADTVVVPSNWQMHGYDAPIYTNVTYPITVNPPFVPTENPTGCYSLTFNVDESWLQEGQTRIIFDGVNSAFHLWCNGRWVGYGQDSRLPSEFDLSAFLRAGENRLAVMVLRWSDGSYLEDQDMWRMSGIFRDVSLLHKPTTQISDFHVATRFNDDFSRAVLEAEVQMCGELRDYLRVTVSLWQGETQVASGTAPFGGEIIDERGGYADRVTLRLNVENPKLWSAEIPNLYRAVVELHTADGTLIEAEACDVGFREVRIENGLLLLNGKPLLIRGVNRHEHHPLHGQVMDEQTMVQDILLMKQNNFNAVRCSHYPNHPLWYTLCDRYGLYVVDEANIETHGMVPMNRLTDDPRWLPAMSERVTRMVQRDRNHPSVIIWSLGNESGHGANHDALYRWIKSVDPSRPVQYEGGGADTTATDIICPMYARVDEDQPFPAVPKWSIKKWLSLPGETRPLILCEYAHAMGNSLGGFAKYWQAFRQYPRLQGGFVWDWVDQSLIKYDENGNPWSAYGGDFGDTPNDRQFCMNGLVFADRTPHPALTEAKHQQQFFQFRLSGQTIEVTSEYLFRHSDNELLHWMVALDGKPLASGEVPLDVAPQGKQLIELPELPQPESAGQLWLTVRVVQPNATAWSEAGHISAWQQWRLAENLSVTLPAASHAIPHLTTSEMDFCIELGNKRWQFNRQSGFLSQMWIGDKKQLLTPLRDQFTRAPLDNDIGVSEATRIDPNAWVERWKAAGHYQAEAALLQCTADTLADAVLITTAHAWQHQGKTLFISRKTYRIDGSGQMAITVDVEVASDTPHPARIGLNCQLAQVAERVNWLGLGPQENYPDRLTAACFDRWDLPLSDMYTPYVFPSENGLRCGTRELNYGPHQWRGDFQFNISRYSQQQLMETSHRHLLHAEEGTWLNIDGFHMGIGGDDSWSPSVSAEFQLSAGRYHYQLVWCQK
Sequence of Cytochrome P450 3A4 (P08684 whole entry): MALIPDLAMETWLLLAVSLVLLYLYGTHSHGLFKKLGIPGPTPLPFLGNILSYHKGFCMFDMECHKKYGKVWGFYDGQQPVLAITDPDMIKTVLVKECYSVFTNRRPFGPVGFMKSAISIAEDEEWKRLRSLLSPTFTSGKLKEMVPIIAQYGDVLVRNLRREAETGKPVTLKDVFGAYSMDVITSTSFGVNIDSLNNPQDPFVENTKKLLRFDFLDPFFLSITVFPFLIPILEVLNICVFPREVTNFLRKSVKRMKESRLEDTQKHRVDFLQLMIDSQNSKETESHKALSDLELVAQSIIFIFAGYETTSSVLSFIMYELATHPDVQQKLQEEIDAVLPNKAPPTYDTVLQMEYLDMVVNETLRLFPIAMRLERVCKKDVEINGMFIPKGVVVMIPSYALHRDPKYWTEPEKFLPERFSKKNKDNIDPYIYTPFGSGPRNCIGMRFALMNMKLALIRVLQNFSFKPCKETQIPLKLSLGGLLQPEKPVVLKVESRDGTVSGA

On to `CCOc1ccc(NC2=c3c(Br)c(C)ccc3=NC2=O)cc1`, for which the EC50 on Beta-galactosidase was > 40 µM (inactive). Moreover, in assay [1], the IC50 was 7.77 µM (active).
`Cc1ccc(C(=O)COC(=O)CNC(=O)C(c2ccccc2)c2ccccc2)cc1[N+](=O)[O-]`: the EC50 at Beta-galactosidase was > 40 µM (inactive). Moreover, the 50% inhibitory concentration (IC50) in assay [1] was 29.5 µM (not active). In addition, the AC50 on Cytochrome P450 3A4 was 15.8 µM (inconclusive).
For the molecule `O=C1Nc2ccccc2/C1=N/c1ccc(Br)cc1`, the EC50 on Beta-galactosidase was > 40 µM (inactive). Moreover, the IC50 in assay [1] is 7.4 µM (active).
Take `Cc1[nH]n(-c2ccc(Br)cc2)c(=O)c1/C=N/NC(=O)c1ccccc1`: the EC50 in assay [2] is 7.9 µM (active); in assay [3], 0.593 µM (active); in [4], 26.6 µM (active); in assay [5] it was 0.889 µM (active); in the assay on Streptococcus, 1.92 µM (active). The AC50 with HEK293 was 3.72 µM (active); with INS1, 0.898 µM (active).

The term EC50 denotes the concentration giving half of the maximal effect. As usually defined, the IC50 is the concentration needed to halve the response being measured. One may read the AC50 as the midpoint of the concentration-response curve, whichever way the signal moves.
